Experimental data reported in US20050002862A1, “Biological markers for evaluating therapeutic treatment of inflammatory and autoimmune disorders” (priority 2000, published 2005).

Legend:
Type in all cases: in vivo, human
[1] = system: CD38 expression on CD4 T cells; test: CD38 expression on CD4 T cells in blood, cytometry, before/after oral prednisone; conditions: after three days of oral prednisone; all disease groups; mean pre drug 32.9 (9.8); adjusted p-value < 0.001
Source text: (§1) The inventive biomarkers were identified in a study of the effects of oral prednisone on biological markers of allergy and asthma. Eighty subjects were enrolled in the study, 23 with atopic asthma, 28 with allergy alone, 26 with neither allergy nor asthma (healthy controls), and 3 with asthma alone. Allergy was defined by a positive skin prick test. Mild asthma was defined as positive methacholine challenge within the last three months, as well as one or more of documented diagnosis of asthma, history of cough, recurrent wheeze, recurrent difficult breathing, and recurrent chest tightening. […] Cellular markers in the blood samples were evaluated using the SurroScan™ microvolume laser scanning cytometry system for multiparameter cellular analysis. […] In addition, the relative levels of 49 different cell surface antigens (activation antigens, co-stimulatory molecules, adhesion molecules, antigen receptors, cytokine receptors) on specific cell populations were measured. […] Each fluorophore was measured in a separate detection channel, and images were converted to flow cytometry standard format and analyzed with FlowJo™ cytometry analysis software. […] Following data acquisition, variables were analyzed to assess differences in subject groups before drug administration, as well as changes following drug administration. […]

[2] = system: MMP-3; test: MMP-3 concentration, sandwich ELISA, before/after oral prednisone; conditions: after three days of oral prednisone; all disease groups; mean pre drug 37 (29); adjusted p-value < 0.001
Source text: (§2) The inventive biomarkers were identified in a study of the effects of oral prednisone on biological markers of allergy and asthma. Eighty subjects were enrolled in the study, 23 with atopic asthma, 28 with allergy alone, 26 with neither allergy nor asthma (healthy controls), and 3 with asthma alone. Allergy was defined by a positive skin prick test. Mild asthma was defined as positive methacholine challenge within the last three months, as well as one or more of documented diagnosis of asthma, history of cough, recurrent wheeze, recurrent difficult breathing, and recurrent chest tightening. Approximately half of the subjects from each disease group were given oral prednisone for three days, while the other half was given a placebo. Blood samples were taken before treatment and after three days of treatment with oral prednisone or placebo. […] Finally, the chemiluminescent alkaline phosphatase substrate was added and incubated before reading. Standard curves and analyte amounts were determined using curve fitting techniques. Following data acquisition, variables were analyzed to assess differences in subject groups before drug administration, as well as changes following drug administration. A total of 713 variables, including cell populations, cell surface antigen expression, and soluble factors, were analyzed. […]

[3] = system: CD62L expression on B cells; test: CD62L expression on B cells in blood, cytometry, before/after oral prednisone; conditions: after three days of oral prednisone; all disease groups; mean pre drug 2998 (505); adjusted p-value < 0.001
Source text: as §1

[4] = system: HLA class II expression on monocytes; test: HLA class II expression on monocytes in blood, cytometry, before/after oral prednisone; conditions: after three days of oral prednisone, all disease groups, adjusted p-value < 0.001
Source text: The inventive biomarkers were identified in a study of the effects of oral prednisone on biological markers of allergy and asthma. Eighty subjects were enrolled in the study, 23 with atopic asthma, 28 with allergy alone, 26 with neither allergy nor asthma (healthy controls), and 3 with asthma alone. Allergy was defined by a positive skin prick test. Mild asthma was defined as positive methacholine challenge within the last three months, as well as one or more of documented diagnosis of asthma, history of cough, recurrent wheeze, recurrent difficult breathing, and recurrent chest tightening. Approximately half of the subjects from each disease group were given oral prednisone for three days, while the other half was given a placebo. Blood samples were taken before treatment and after three days of treatment with oral prednisone or placebo. Cellular markers in the blood samples were evaluated using the SurroScan™ microvolume laser scanning cytometry system for multiparameter cellular analysis. Monoclonal antigen-specific antibodies were purchased from commercial vendors and coupled to one of three different fluorophores, Cy5, Cy5.5, and Cy7-APC. Assays were performed to monitor cell counts of more than 200 different cell populations, including granulocytes, eosinophils, monocytes, CD4 and CD8 T cells, B cells, and NK cells. In addition, the relative levels of 49 different cell surface antigens (activation antigens, co-stimulatory molecules, adhesion molecules, antigen receptors, cytokine receptors) on specific cell populations were measured. The prepared antibody-dye reagents were combined into cocktails and incubated with aliquots of whole or red blood cell-lysed blood in the dark at room temperature for 20 minutes. The samples were then diluted with an appropriate buffer and loaded into capillary arrays for analysis. Each fluorophore was measured in a separate detection channel, and images were converted to flow cytometry standard format and analyzed with FlowJo™ cytometry analysis software. Template gates were used to enumerate the cell populations of interest in all of the assays. Following data acquisition, variables were analyzed to assess differences in subject groups before drug administration, as well as changes following drug administration. A total of 713 variables, including cell populations, cell surface antigen expression, and soluble factors, were analyzed. […] Univariate tests were performed on individual variables, and the step-down Bonferroni p-value adjustment method of Holm was employed to control for multiple comparisons. The Bonferroni correction, which reduces the number of false positives, is described above. Univariate tests were performed on the data before and after drug administration for both the drug and placebo groups. In order to determine whether any non-normality of the data affected the tests, both non-parametric tests (sign rank or sign) and parametric paired t-tests were performed. Statistical tests for normality, skewness, and kurtosis were performed per variable to assess normality. For sufficiently normally distributed data, the paired t-test result was used; otherwise, the nonparametric result was used. All p-values were adjusted using the step-down Bonferroni method, maintaining the overall study false positive rate below 5%. […] When the analysis was performed on the separate disease classes individually, no significant differences were found before and after drug administration. Additionally, a linear-mixed model was used to evaluate fixed and random effects for the prednisone and placebo groups. This model notes the difference in response in the drug and placebo to indicate whether the observed trends can be attributed to the drug alone. The model, executed with PROC MIXED in SAS™, used the three fixed effects of drug, time, and (drug×time) to fit the data.

[5] = system: monocytes; test: Monocyte count in blood, cytometry, before/after oral prednisone; conditions: after three days of oral prednisone; all disease groups; mean pre drug 369 (121); adjusted p-value < 0.001
Source text: as §1

[6] = system: SAA; test: SAA concentration, sandwich ELISA, before/after oral prednisone; conditions: after three days of oral prednisone; all disease groups; mean pre drug 2.73 (3.3); adjusted p-value < 0.001
Source text: as §2

[7] = system: CD89 expression on granulocytes; test: CD89 expression on granulocytes in blood, microvolume laser scanning cytometry, before/after oral prednisone; conditions: after three days of oral prednisone, adjusted p-value < 0.001
Source text: as §1

[8] = system: HLA class II expression on B cells; test: HLA class II expression on B cells in blood, cytometry, before/after oral prednisone; conditions: after three days of oral prednisone, all disease groups, adjusted p-value < 0.001
Source text: The inventive biomarkers were identified in a study of the effects of oral prednisone on biological markers of allergy and asthma. Eighty subjects were enrolled in the study, 23 with atopic asthma, 28 with allergy alone, 26 with neither allergy nor asthma (healthy controls), and 3 with asthma alone. Allergy was defined by a positive skin prick test. Mild asthma was defined as positive methacholine challenge within the last three months, as well as one or more of documented diagnosis of asthma, history of cough, recurrent wheeze, recurrent difficult breathing, and recurrent chest tightening. Approximately half of the subjects from each disease group were given oral prednisone for three days, while the other half was given a placebo. Blood samples were taken before treatment and after three days of treatment with oral prednisone or placebo. Cellular markers in the blood samples were evaluated using the SurroScan™ microvolume laser scanning cytometry system for multiparameter cellular analysis. Monoclonal antigen-specific antibodies were purchased from commercial vendors and coupled to one of three different fluorophores, Cy5, Cy5.5, and Cy7-APC. Assays were performed to monitor cell counts of more than 200 different cell populations, including granulocytes, eosinophils, monocytes, CD4 and CD8 T cells, B cells, and NK cells. In addition, the relative levels of 49 different cell surface antigens (activation antigens, co-stimulatory molecules, adhesion molecules, antigen receptors, cytokine receptors) on specific cell populations were measured. […] Each fluorophore was measured in a separate detection channel, and images were converted to flow cytometry standard format and analyzed with FlowJo™ cytometry analysis software. […] Following data acquisition, variables were analyzed to assess differences in subject groups before drug administration, as well as changes following drug administration. A total of 713 variables, including cell populations, cell surface antigen expression, and soluble factors, were analyzed. […]

C[C@]12C=CC(=O)C=C1CC[C@@H]1[C@@H]2C(=O)C[C@@]2(C)[C@H]1CC[C@]2(O)C(=O)CO [prednisone]
CD38+ CD4 T cells, Mean Post Drug (SD) [1]: 29.3 (9.1) % of all CD4 T cells | MMP-3 concentration, Mean Post Drug (SD) [2]: 188 (140) ng/ml | CD62L on B cells (expression intensity), Mean Post Drug (SD) [3]: 2479 (478) arbitrary units | HLADQ+ monocyte population, Mean Post Drug (SD) ([4]; mean pre drug 8.7 (4.39)): 3.6 (2.49) % of total monocytes | HLADR+ monocyte population, Mean Post Drug (SD) ([4]; mean pre drug 84.4 (14.0)): 75.4 (16.9) % of total monocytes | HLAPAN+ monocyte population, Mean Post Drug (SD) ([4]; mean pre drug 91.8 (8.4)): 83.0 (15.1) % of total monocytes | HLA-DQ on monocytes (expression intensity), Mean Post Drug (SD) ([4]; mean pre drug 165 (103)): 69 (52) arbitrary units | HLA-DR on monocytes (expression intensity), Mean Post Drug (SD) ([4]; mean pre drug 2966 (1068)): 1970 (729) arbitrary units | HLA-PAN on monocytes (expression intensity), Mean Post Drug (SD) ([4]; mean pre drug 4961 (1738)): 3196 (1046) arbitrary units | Monocytes (count), Mean Post Drug (SD) [5]: 478 (160) cells/μl | SAA concentration, Mean Post Drug (SD) [6]: 6.71 (14.5) μg/ml | CD89+ granulocyte population, Mean Post Drug (SD) ([7]; all disease groups (atopic, atopic asthmatic, healthy), mean pre drug 85 (20)): 96 (9) % of total granulocytes | CD89 on granulocytes (expression intensity), Mean Post Drug (SD) ([7]; all disease groups, mean pre drug 2047 (1549)): 2527 (1691) arbitrary units | HLA-DQ on B cells (expression intensity), Mean Post Drug (SD) ([8]; mean pre drug 3123 (1090)): 1680 (817) arbitrary units | HLA-DR on B cells (expression intensity), Mean Post Drug (SD) ([8]; mean pre drug 8108 (2711)): 4486 (2025) arbitrary units | HLA-PAN on B cells (expression intensity), Mean Post Drug (SD) ([8]; mean pre drug 11684 (3190)): 6550 (3123) arbitrary units
